Measured values taken from ChEMBL document CHEMBL5291721, “A preclinical secondary pharmacology resource illuminates target-adverse drug reaction associations of marketed drugs” (Nat Commun, 2023).
Each block holds one compound with its values, some of them ahead of it.

Assays:
[1] = molecular target: T1, Peroxisome proliferator-activated receptor alpha (Homo sapiens, UniProt Q07869); assay type: functional
T1 sequence (Q07869 whole entry): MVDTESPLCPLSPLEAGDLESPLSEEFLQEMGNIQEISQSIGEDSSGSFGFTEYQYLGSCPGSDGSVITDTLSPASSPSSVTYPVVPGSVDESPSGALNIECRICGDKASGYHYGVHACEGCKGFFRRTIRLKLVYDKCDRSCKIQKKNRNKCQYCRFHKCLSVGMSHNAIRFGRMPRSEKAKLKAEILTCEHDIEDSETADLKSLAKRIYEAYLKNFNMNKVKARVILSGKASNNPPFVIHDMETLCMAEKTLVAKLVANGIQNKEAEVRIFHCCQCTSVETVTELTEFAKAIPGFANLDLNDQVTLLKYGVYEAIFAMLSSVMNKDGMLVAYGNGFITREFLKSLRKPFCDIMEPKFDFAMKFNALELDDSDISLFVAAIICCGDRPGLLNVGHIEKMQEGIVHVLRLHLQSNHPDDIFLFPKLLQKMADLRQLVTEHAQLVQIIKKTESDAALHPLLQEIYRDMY

[2] = molecular target: T2, 5-hydroxytryptamine receptor 2B (Homo sapiens, UniProt P41595)
[3] = molecular target: T3, Type-1 angiotensin II receptor (Homo sapiens, UniProt P30556)
T3 sequence (P30556 whole entry): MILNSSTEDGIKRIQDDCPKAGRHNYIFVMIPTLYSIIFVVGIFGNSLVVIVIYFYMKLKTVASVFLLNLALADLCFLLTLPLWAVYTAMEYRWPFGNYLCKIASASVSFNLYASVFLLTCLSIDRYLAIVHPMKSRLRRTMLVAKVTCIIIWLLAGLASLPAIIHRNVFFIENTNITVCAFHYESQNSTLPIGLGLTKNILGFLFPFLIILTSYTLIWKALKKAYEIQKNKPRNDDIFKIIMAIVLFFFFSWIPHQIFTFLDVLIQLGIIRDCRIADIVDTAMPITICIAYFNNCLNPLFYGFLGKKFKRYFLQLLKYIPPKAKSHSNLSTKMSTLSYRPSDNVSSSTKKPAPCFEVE

[4] = molecular target: T4, Amine oxidase [flavin-containing] A (Homo sapiens, UniProt P21397); assay type: functional
T4 sequence (P21397 whole entry): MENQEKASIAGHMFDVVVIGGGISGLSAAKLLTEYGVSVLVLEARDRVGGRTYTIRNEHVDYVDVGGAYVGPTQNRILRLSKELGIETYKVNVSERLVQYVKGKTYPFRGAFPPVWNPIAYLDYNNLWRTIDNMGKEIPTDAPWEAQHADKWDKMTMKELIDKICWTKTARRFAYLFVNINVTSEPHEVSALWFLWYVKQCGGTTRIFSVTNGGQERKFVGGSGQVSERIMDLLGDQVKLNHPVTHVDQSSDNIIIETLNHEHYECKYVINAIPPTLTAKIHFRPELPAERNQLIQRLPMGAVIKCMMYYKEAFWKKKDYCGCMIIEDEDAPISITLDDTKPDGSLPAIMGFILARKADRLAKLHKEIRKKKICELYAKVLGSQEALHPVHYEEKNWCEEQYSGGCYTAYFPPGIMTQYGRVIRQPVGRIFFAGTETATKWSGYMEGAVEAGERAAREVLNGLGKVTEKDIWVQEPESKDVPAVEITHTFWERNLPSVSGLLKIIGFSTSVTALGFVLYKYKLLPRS

[5] = molecular target: T5, Alpha-2A adrenergic receptor (Homo sapiens, UniProt P08913)
T5 sequence (P08913 whole entry): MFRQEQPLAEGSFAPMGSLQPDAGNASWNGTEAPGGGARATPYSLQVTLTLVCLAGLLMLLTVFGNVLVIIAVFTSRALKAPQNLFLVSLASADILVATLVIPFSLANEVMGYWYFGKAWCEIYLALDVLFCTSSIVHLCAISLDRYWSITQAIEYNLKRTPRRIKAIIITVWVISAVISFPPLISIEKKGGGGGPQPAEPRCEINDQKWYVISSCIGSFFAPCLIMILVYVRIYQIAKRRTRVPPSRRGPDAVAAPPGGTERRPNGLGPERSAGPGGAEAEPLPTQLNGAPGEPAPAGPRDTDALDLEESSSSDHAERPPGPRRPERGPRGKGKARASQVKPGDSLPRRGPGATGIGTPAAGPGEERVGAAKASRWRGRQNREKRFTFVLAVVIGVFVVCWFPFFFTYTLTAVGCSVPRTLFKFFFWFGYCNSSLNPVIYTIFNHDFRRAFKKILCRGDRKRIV

[6] = molecular target: Prostaglandin G/H synthase 1 (Homo sapiens, UniProt P23219); assay type: functional
[7] = molecular target: T2, 5-hydroxytryptamine receptor 2B; assay type: functional, cell-based
D(3) dopamine receptor = D(3) dopamine receptor (Homo sapiens, UniProt P35462)
Estrogen receptor = molecular target: T6, Estrogen receptor (Homo sapiens, UniProt P03372); assay type: functional
T6 sequence (P03372 whole entry): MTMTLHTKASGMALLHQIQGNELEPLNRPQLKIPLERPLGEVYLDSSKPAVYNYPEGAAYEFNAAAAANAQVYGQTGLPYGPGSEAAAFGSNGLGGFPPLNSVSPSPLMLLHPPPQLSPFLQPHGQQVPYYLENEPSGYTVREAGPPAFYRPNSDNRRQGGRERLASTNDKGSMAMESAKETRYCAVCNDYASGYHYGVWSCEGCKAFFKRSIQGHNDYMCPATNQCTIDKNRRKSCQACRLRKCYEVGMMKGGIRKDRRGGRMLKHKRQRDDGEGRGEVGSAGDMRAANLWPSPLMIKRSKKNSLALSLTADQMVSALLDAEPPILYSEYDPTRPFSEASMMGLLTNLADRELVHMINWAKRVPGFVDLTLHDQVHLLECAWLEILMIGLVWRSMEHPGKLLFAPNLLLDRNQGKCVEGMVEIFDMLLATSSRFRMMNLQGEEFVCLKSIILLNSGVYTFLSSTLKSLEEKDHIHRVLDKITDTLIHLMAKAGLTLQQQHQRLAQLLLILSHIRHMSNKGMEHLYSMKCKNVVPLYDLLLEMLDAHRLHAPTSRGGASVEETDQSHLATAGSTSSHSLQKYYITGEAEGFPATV
Further: assay procedure not described here.

T2 sequence (P41595 whole entry): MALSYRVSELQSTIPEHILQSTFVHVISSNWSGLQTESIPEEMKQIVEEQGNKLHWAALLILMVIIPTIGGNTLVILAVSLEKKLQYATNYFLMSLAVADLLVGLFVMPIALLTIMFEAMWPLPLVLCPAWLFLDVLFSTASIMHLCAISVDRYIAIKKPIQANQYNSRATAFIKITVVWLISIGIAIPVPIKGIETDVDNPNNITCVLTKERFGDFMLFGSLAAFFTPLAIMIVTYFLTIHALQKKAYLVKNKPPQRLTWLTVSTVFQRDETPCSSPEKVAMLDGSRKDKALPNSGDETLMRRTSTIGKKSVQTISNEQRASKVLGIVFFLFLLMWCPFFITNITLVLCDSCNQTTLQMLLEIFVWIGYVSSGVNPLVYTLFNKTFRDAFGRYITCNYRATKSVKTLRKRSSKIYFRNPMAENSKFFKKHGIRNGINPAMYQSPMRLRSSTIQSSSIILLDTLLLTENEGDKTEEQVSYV
Sequence of Prostaglandin G/H synthase 1 (P23219 whole entry): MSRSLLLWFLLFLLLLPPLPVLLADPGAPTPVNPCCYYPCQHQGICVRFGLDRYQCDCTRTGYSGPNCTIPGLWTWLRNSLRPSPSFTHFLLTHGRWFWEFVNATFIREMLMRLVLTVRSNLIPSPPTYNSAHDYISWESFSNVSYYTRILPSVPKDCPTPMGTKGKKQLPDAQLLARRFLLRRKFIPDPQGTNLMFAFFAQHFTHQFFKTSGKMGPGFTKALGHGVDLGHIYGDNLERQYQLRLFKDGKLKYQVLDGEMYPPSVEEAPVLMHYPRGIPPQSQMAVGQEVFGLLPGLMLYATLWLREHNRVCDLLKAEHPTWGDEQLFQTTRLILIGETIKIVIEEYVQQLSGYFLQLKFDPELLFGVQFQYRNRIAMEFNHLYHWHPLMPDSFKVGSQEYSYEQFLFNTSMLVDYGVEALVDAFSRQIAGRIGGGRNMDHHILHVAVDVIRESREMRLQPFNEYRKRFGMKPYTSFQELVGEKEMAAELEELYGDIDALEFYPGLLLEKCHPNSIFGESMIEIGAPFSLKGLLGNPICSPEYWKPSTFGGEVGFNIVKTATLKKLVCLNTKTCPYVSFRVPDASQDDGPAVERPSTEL
Sequence of D(3) dopamine receptor (P35462 whole entry): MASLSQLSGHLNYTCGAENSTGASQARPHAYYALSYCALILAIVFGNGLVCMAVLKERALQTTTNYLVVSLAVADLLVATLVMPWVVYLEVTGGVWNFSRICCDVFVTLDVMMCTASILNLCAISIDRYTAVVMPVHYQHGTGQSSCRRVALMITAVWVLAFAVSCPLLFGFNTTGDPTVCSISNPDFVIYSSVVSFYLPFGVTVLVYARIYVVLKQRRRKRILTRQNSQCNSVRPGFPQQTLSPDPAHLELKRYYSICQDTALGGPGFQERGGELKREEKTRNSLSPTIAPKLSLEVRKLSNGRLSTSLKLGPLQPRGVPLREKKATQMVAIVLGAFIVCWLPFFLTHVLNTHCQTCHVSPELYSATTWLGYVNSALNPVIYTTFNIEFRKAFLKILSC

AC50 [1]: > 30 µM
SMILES: CCOC(=O)C(C)(C)Oc1ccc(Cl)cc1 [CLOFIBRATE]

AC50 [2]: 10.6 µM
SMILES: Fc1ccc([C@@H]2CCNC[C@H]2COc2ccc3c(c2)OCO3)cc1 [PAROXETINE]

SMILES: O=c1c(O)c(-c2ccc(O)c(O)c2)oc2cc(O)cc(O)c12 [QUERCETIN]
AC50 [3]: > 100 µM

AC50 [4]: > 30 µM
AC50 [5]: 11.9 µM
AC50 [6]: > 30 µM
AC50 [7]: > 30 µM
AC50 (D(3) dopamine receptor): 7.05 µM
SMILES: CCN(CC)CCCC(C)Nc1c2ccc(Cl)cc2nc2ccc(OC)cc12 (centres undefined) [QUINACRINE]

AC50 (Estrogen receptor): > 30 µM
SMILES: CCOC(=O)[C@@H](N)Cc1ccc(-c2cc(O[C@H](c3ccc(Cl)cc3-n3ccc(C)n3)C(F)(F)F)nc(N)n2)cc1 [TELOTRISTAT ETHYL]
